According to patent US20190029975A1, “TOCOPHEROL AND TOCOTRIENOL QUINONE DERIVATIVES FOR INCREASING THIOSULFATE LEVELS OR DECREASING HYDROGEN SULFIDE LEVELS” (BIOELECTRON TECHNOLOGY CORPORATION, priority 2016, published 2019):

Key:
[1] = system: mouse striatal cells (Q7); assay: Thiosulfate production in EPI-743 treated ATG-stressed Q7 cells; assay type: cell-based; conditions: for effect on cysteine levels: Q7 cells, 10 μM ATG or 100 nM EPI-743; for Cysteine Calculated Concentration / Thiosulfate Peak Area: 100 nM 743
Description: Conditionally immortalized wild-type mouse striatal cells (Q7, passage #45) were seeded at 300,000 cells per well in 6-well plates containing 3 mL/well of DMEM (High Glucose) containing 10% FBS, penicillin/streptomycin, and 400 μg/mL G418. After an overnight incubation at 33C, the cells were treated for 4-5 hours with either EPI-743 (100 nM final concentration) or DMSO vehicle (1% final concentration). Aurothioglucose (final concentration 10 μM) was added prior to an 18-hour treatment period. Cells were washed 1× with Hanks' buffered saline solution (HBSS), counted, and then resuspended in monobromobimane capping solution.
Cysteine and thiosulfate levels are shown below. Aurothioglucose (ATG) is an inhibitor of thioredoxin reductase-1 and has been repeatedly used as a tool compound to increase oxidative stress. […] Cysteine levels were unaffected by ATG or EPI-743 treatment.

[2] = system: SQOR products (thiosulfate, glutathione persulfide); assay: Correlation of plasma H2S with the SQOR products thiosulfate and glutathione persulfide in Leigh Syndrome patients; assay type: in vivo, human; conditions: all subjects at all time points
Description: A quantitative method for the analysis of H2S, thiosulfate, and glutathione persulfide in biological matrices via liquid chromatography coupled to atmospheric pressure ionization (API) tandem mass spectrometry (LC-MS/MS) is provided.
Patient plasma samples were collected with informed consent from the patients described in Example 1. The sulfur containing compounds were derivatized with bromo bimane to stabilize the samples for measurement. Samples were stored at −80° C. and shipped for analysis to Edison under dry ice.
(§1) The samples were analyzed by measuring the absolute concentration of H2S, thiosulfate, and glutathione persulfide using 6-point calibration curves. […]
(§2) An API mass spectrometer (AB6500 Qtrap) coupled to a high performance liquid chromatograph (Eksigent MicroLC 200 Plus) was used to quantify H2S, thiosulfate, and glutathione persulfide and their internal standards from all biological fluids and calibrants. […]
Bromobimane (BB) and Bromobimane internal standard (B-IS) were injected before each calibration curve. […] Statistical calculations and analytical run acceptance were determined based on criteria set forth in the FDA/EMA guidance where applicable. Fundamental parameters such as accuracy, precision, selectivity, sensitivity, reproducibility, and stability were monitored. […]

[3] = Plasma thiosulfate in Leigh Syndrome patients treated with EPI-743 (EPI743-12-002 Leigh Trial); assay type: in vivo, human
Description: As part of the Edison EPI743-12-002 Leigh Trial, 17 Leigh Syndrome patients were treated with EPI-743 (15 mg/kg up to 200 mg three times a day) for 12 months. An additional 14 Leigh Syndrome patients received placebo for the first six months, and were randomized to either 5 or 15 mg/kg up to 200 mg three times a day EPI-743 for the subsequent six months.
Plasma thiosulfate concentrations were measured at various time points, over a 12 month period, for patients on drug and placebo. Plasma samples were collected from Leigh Syndrome patients, and the samples processed according to the procedure described in Example 2. […]
as §1, §2
Bromobimane (BB) and Bromobimane internal standard (B-IS) were injected before each calibration curve. […] Statistical calculations and analytical run acceptance were determined based on criteria set forth in the FDA/EMA guidance where applicable. Fundamental parameters such as accuracy, precision, selectivity, sensitivity, reproducibility, and stability were monitored.

OC[C@H]1O[C@H]([S-])[C@H](O)[C@@H](O)[C@@H]1O.[Au+] [ATG, Aurothioglucose, reference compound]
effect on cysteine levels [1]: unaffected

CC(C)=CCC/C(C)=C/CC/C(C)=C/CC[C@@](C)(O)CCC1=C(C)C(=O)C(C)=C(C)C1=O [EPI-743]
H2S/glutathione persulfide ratio versus untreated patients [2]: lower | H2S/thiosulfate ratio versus untreated patients [2]: lower | Cysteine Calculated Concentration ([1]; 10 μM ATG, 1% DMSO control 0.272): 0.281 µM | Thiosulfate Peak Area ([1]; 10 μM ATG, 1% DMSO control 3466): 37903 | increase in thiosulfate, EPI-743 treated versus untreated cells ([1]; ATG-stressed cells (10 μM ATG), 100 nM EPI-743): approximately 10 fold | Cysteine Calculated Concentration ([1]; No Stress, 1% DMSO control 0.251): 0.264 µM | Thiosulfate Peak Area ([1]; No Stress, 1% DMSO control 2881): 3656 | effect on cysteine levels [1]: unaffected | increase in mean plasma thiosulfate ([3]; Leigh Syndrome patients, across all time points over 12 months, versus baseline, placebo virtually no change): greater than 100% | mean plasma thiosulfate ([3]; subjects treated with EPI-743, across all time points, baseline 0.21 μM): 0.54 µM
